Key:
IRAK1 = target: T1, IRAK1 (Homo sapiens, UniProt P51617); assay: IRAK1 enzymatic assay (ADP-Glo luminescence); assay type: biochemical; details: purified human recombinant His-TEV-IRAK1 (194-712)
T1 construct: His-TEV-IRAK1 (194-712); His (N); TEV cleavage site (N)
Description: IRAK1 is a human purified recombinant enzyme (His-TEV-IRAK1 (194-712))
In this assay, IRAK1 hydrolyses ATP and autophosphorylates. Measurement of IRAK-1 inhibition is performed in 384-well format based on luminescence assay (ADP-Glo™ Kinase Assay from Promega). Purified human recombinant IRAK1 (0.3 μg/ml) and serial diluted compounds in DMSO (range of concentration from 10 μM to 0.5 nM) or controls (1% DMSO) are incubated for 15 minutes at RT in assay buffer containing 50 mM Hepes pH 7.0, Fatty acid-free BSA 0.1%, Dithiothreitol (DTT) 2 mM, MgCl2 10 mM, EGTA 0.5 mM, Triton X-100 0.01%. The kinase reaction is then initiated by the addition of ATP […] After 2 hours of incubation at RT, the reaction is stopped and the unconsumed ATP depleted by the addition of ADP-Glo™ Reagent according to supplier instructions. After 40 minutes of incubation at RT, the Kinase Detection Reagent is then added to the assay plate according to supplier instructions. After 20 minutes of incubation at RT, the luminescence signal is measured with a luminometer (PerkinElmer Envision or equivalent reader).

IRAK4 = target: T2, IRAK4 (Homo sapiens, UniProt Q9NWZ3); assay: IRAK4 enzymatic assay (ADP-Glo luminescence); assay type: biochemical; details: purified human recombinant His-TEV-IRAK4 (1-460), ATP 2 μM
T2 construct: His-TEV-IRAK4 (1-460); His (N); TEV cleavage site (N)
T2 sequence (Q9NWZ3 1-460): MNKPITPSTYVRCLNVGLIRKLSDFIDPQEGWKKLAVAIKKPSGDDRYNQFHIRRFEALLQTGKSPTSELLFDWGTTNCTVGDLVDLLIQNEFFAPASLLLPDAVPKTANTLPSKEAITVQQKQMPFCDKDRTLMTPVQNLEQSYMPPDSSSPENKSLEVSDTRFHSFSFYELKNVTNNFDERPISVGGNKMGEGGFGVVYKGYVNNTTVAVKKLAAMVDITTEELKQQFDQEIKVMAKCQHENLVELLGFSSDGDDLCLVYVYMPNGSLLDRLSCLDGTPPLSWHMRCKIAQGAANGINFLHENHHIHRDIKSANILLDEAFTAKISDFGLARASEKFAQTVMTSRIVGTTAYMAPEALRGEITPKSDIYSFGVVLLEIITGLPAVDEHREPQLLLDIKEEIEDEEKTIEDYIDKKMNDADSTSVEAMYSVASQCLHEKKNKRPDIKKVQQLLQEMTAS
Description: IRAK4 is a human purified recombinant enzyme (His-TEV-IRAK4 (1-460)).
In this assay, IRAK4 hydrolyses ATP, autophosphorylates and phosphorylates a Serine/Threonine generic peptidic substrate (STK: 61ST1BLC from CisBio International). Measurement of IRAK-4 inhibition is performed in 384-well format based on a luminescence assay (ADP-Glo™ Kinase Assay from Promega). Purified human recombinant IRAK4 (0.3 μg/ml) and serial diluted compounds in DMSO (range of concentration from 10 μM to 0.5 nM) or controls (1% DMSO) are incubated for 15 minutes at RT in assay buffer containing 50 mM Hepes pH 7.0, Fatty acid-free BSA 0.1%, Dithiothreitol (DTT) 2 mM, MgCl2 10 mM, EGTA 0.5 mM, Triton X-100 0.01%, MnCl2 5 mM. The kinase reaction is then initiated by the addition of ATP (2 μM) and the peptidic substrate STK1-biotin peptide (300 nM). After 2 hours of incubation at RT, the reaction is stopped and the unconsumed ATP depleted by the addition of ADP-Glo™ Reagent according to supplier instructions. After 40 minutes of incubation at RT, the Kinase Detection Reagent is then added to the assay plate according to supplier instructions. After 20 minutes of incubation at RT, the luminescence signal is measured with a plate-reading luminometer (PerkinElmer Envision or equivalent reader).

T1 sequence (P51617 194-712): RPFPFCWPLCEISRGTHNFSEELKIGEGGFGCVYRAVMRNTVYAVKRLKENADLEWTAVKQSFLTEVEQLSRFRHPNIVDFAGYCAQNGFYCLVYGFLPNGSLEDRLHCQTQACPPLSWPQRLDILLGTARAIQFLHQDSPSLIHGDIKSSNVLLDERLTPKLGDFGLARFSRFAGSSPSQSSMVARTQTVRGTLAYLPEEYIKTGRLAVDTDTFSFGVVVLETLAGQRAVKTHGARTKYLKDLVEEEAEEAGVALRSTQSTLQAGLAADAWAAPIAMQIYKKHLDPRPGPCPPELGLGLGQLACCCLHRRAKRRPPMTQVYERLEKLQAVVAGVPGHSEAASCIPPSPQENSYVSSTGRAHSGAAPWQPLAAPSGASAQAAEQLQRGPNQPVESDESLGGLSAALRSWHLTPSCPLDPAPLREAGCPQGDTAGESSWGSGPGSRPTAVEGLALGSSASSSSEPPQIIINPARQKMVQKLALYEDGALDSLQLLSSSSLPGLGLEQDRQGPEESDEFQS

IC50 (IRAK1) [µM]	IC50 (IRAK4) [µM]	Compound
0.1 to 1	≤ 0.1	C[C@H](CCO)n1/c(=N/C(=O)c2cccc(S(C)(=O)=O)c2)[nH]c2cc(N3CCOCC3=O)ccc21 [Compound 24, (R,E)-N-(1-(4-hydroxybutan-2-yl)-5-(3-oxomorpholino)-1H-benzo[d]imidazol-2(3H)-ylidene)-3-(methylsulfonyl)benzamide]
≤ 0.1	≤ 0.1	CC1(C)C(=O)N(c2ccc3c(c2)[nH]/c(=N\C(=O)c2cccc(C(F)F)c2)n3CCCO)CCN1C1CC1 [Example 188, (E)-N-(5-(4-cyclopropyl-3,3-dimethyl-2-oxopiperazin-1-yl)-1-(3-hydroxypropyl)-1H-benzo[d]imidazol-2(3H)-ylidene)-3-(difluoromethyl)benzamide]
0.1 to 1	0.1 to 1	O=C(/N=c1\[nH]c2cc(N3CCOCC3=O)ccc2n1[C@H]1CCCC[C@H]1CO)c1cccc(C(F)F)c1 (racemic) [Compound 117, rac-(E)-3-(difluoromethyl)-N-(1-((1S,2R)-2-(hydroxymethyl)cyclohexyl)-5-(3-oxomorpholino)-1H-benzo[d]imidazol-2(3H)-ylidene)benzamide]
0.1 to 1	≤ 0.1	C[S+]([O-])CCn1/c(=N/C(=O)c2cccc(C(F)F)c2)[nH]c2cc(N3CCOCC3=O)ccc21 (stereo not drawn) [Compound 94, (E)-3-(difluoromethyl)-N-(1-(2-(methylsulfinyl)ethyl)-5-(3-oxomorpholino)-1H-benzo[d]imidazol-2(3H)-ylidene)benzamide]
≤ 0.1	≤ 0.1	CC(C)Oc1cc2c(cc1N1CCOCC1=O)[nH]/c(=N\C(=O)c1cccc(C(F)F)c1)n2CCCO [Compound 137, (E)-3-(difluoromethyl)-N-(1-(3-hydroxypropyl)-6-isopropoxy-5-(3-oxomorpholino)-1H-benzo[d]imidazol-2(3H)-ylidene)benzamide]
0.1 to 1	≤ 0.1	O=C(/N=c1\[nH]c2cc(N3CCOCC3=O)ccc2n1CCCO)c1cccc(CO)c1 [Compound 21, (E)-3-(hydroxymethyl)-N-(1-(3-hydroxypropyl)-5-(3-oxomorpholino)-1H-benzo[d]imidazol-2(3H)-ylidene)benzamide]
0.1 to 1	≤ 0.1	C[S+]([O-])CCCCn1/c(=N/C(=O)c2cccc(C(F)F)c2)[nH]c2cc(N3CCOCC3=O)ccc21 (stereo not drawn) [Compound 88]
≤ 0.1	≤ 0.1	Cn1ccc(-c2cccc(C(=O)/N=c3\[nH]c4cc(N5CCOCC5=O)ccc4n3CCCO)c2)cc1=O [Compound 153, (E)-N-(1-(3-hydroxypropyl)-5-(3-oxomorpholino)-1H-benzo[d]imidazol-2(3H)-ylidene)-3-(1-methyl-2-oxo-1,2-dihydropyridin-4-yl)benzamide]
0.1 to 1	≤ 0.1	COc1cc2c(cc1N1CCOCC1=O)[nH]/c(=N\C(=O)c1cccc(C#N)c1)n2CC1(CO)CC1 [Compound 51, (E)-3-cyano-N-(1-((1-(hydroxymethyl)cyclopropyl)methyl)-6-methoxy-5-(3-oxomorpholino)-1H-benzo[d]imidazol-2(3H)-ylidene)benzamide]
> 1	≤ 0.1	O=C(/N=c1\[nH]c2cc(N3CCOCC3=O)ccc2n1CCCO)c1ccc2c(c1)COC2=O [Compound 23, (E)-N-(1-(3-hydroxypropyl)-5-(3-oxomorpholino)-1H-benzo[d]imidazol-2(3H)-ylidene)-1-oxo-1,3-dihydroisobenzofuran-5-carboxamide]
0.1 to 1	≤ 0.1	CN1CCCN(c2ccc3c(c2)[nH]/c(=N\C(=O)c2cccc(C(F)F)c2)n3CCCO)C1=O [Example 225, (E)-N-(1-(3-hydroxypropyl)-5-(3-methyl-2-oxotetrahydropyrimidin-1(2H)-yl)-1H-benzo[d]imidazol-2(3H)-ylidene)-3-(difluoromethyl)benzamide]
0.1 to 1	≤ 0.1	O=C(/N=c1\[nH]c2cc(N3CCOCC3=O)ccc2n1C1CCCC(CO)C1)c1cccc(C(F)F)c1 (stereo not drawn) [Compound 121, (E)-3-(difluoromethyl)-N-(1-(3-(hydroxymethyl)cyclohexyl)-5-(3-oxomorpholino)-1H-benzo[d]imidazol-2(3H)-ylidene)benzamide]
≤ 0.1	≤ 0.1	COc1cc2c(cc1N1CCCOC1=O)[nH]/c(=N\C(=O)c1cccc(C(F)F)c1)n2CCCO [Example 207, (E)-3-(difluoromethyl)-N-(1-(3-hydroxypropyl)-6-methoxy-5-(2-oxo-1,3-oxazinan-3-yl)-1H-benzo[d]imidazol-2(3H)-ylidene)benzamide]
0.1 to 1	≤ 0.1	O=C(/N=c1\[nH]c2cc(N3CCCOC3=O)ccc2n1CC1CCCCO1)c1cccc(C(F)F)c1 (stereo not drawn) [Compound 160, (E)-3-(difluoromethyl)-N-(5-(2-oxo-1,3-oxazinan-3-yl)-1-((tetrahydro-2H-pyran-2-yl)methyl)-1H-benzo[d]imidazol-2(3H)-ylidene)benzamide]
0.1 to 1	≤ 0.1	CS(=O)(=O)c1cccc(C(=O)/N=c2\[nH]c3cc(N4CCOCC4=O)ccc3n2CCCCO)c1 [Compound 19, (E)-N-(1-(4-hydroxybutyl)-5-(3-oxomorpholino)-1H-benzo[d]imidazol-2(3H)-ylidene)-3-(methylsulfonyl)benzamide]
> 1	≤ 0.1	N#Cc1cc2c(cc1N1CCOCC1=O)[nH]/c(=N\C(=O)c1cccc(C(F)(F)F)c1)n2CCCO [Compound 138, (E)-N-(6-cyano-1-(3-hydroxypropyl)-5-(3-oxomorpholino)-1H-benzo[d]imidazol-2(3H)-ylidene)-3-(trifluoromethyl)benzamide]
> 1	≤ 0.1	O=C(/N=c1\[nH]c2cc(N3CCCOC3=O)ccc2n1C1CCCC1)c1cccc(C(F)(F)F)c1 [Compound 171, (E)-N-(1-cyclopentyl-5-(2-oxo-1,3-oxazinan-3-yl)-1H-benzo[d]imidazol-2(3H)-ylidene)-3-(trifluoromethyl)benzamide]
0.1 to 1	≤ 0.1	O=C(/N=c1\[nH]c2cc(N3CCOCC3=O)ccc2n1CCCO)c1cccc(C(F)(F)F)c1F [Compound 4, (E)-2-fluoro-N-(1-(3-hydroxypropyl)-5-(3-oxomorpholino)-1H-benzo[d]imidazol-2(3H)-ylidene)-3-(trifluoromethyl)benzamide]
≤ 0.1	≤ 0.1	O=C(/N=c1\[nH]c2cc(N3CCN(C4CCC4)CC3=O)ccc2n1CCCO)c1cccc(C(F)F)c1 [Compound 184, (E)-N-(5-(4-cyclobutyl-2-oxopiperazin-1-yl)-1-(3-hydroxypropyl)-1H-benzo[d]imidazol-2(3H)-ylidene)-3-(difluoromethyl)benzamide]
0.1 to 1	≤ 0.1	O=C(/N=c1\[nH]c2cc(N3CCCNC3=O)ccc2n1CCCO)c1cccc(C(F)F)c1 [Compound 46, (E)-3-(difluoromethyl)-N-(1-(3-hydroxypropyl)-5-(2-oxotetrahydropyrimidin-1(2H)-yl)-1H-benzo[d]imidazol-2(3H)-ylidene)benzamide]
0.1 to 1	≤ 0.1	O=C(/N=c1\[nH]c2cc(N3CCCOC3=O)ccc2n1CC1COC1)c1cccc(C(F)F)c1 [Compound 159, (E)-3-(difluoromethyl)-N-(1-(oxetan-3-ylmethyl)-5-(2-oxo-1,3-oxazinan-3-yl)-1H-benzo[d]imidazol-2(3H)-ylidene)benzamide]

From patent US10059701B2 (Merck Patent GmbH, priority 2015, dated 2018)
